Source: PubChem BioAssay AID248 (DTP/NCI, 2004)
Several values for one entry are separate records, joined by “and”; a condition that tells them apart may be missing. Equal values may be shown once. Inconclusive results and toxic doses are left out. Rule as the data show it: active = T/C of 150% or more; inactive = T/C below 125%.

System: L1210 leukemia ip in BDF1 mice, survival T/C
Test: NCI In Vivo Anticancer Drug Screen. Data for tumor model L1210 Leukemia (intraperitoneal) in B6D2F1 (BDF1) mice
Settings: endpoint: mean survival time, higher = longer survival
Outline: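 Antitumor effect is assessed in tumor-bearing animals. Survival in the compound arm is compared with a vehicle-dosed control arm and expressed as their quotient.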

Measured: T/C

O=C(O)c1[nH]c(=O)[nH]c(=O)c1F
inactive: dose: 0.09 mg/kg/injection, schedule: Q01DX005 (oral), vehicle: saline 112 % of control | dose: 0.18 mg/kg/injection, schedule: Q01DX005 (oral), vehicle: saline 108 % of control | dose: 0.18 mg/kg/injection, schedule: Q01DX015 (ip), vehicle: saline 115 % of control | dose: 0.37 mg/kg/injection, schedule: Q01DX005 (oral), vehicle: saline 115 % of control | dose: 0.63 mg/kg/injection, schedule: Q01DX015 (ip), vehicle: carboxymethylcellulose (CMC) 105 % of control | dose: 0.75 mg/kg/injection, schedule: Q01DX005 (oral), vehicle: saline 120 % of control | dose: 0.75 mg/kg/injection, schedule: Q01DX015 (oral), vehicle: saline 115 % of control | dose: 0.75 mg/kg/injection, schedule: Q## X003 (oral), vehicle: saline 101 % of control | dose: 0.75 mg/kg/injection, schedule: Q## X024 (oral), vehicle: saline 112 % of control | dose: 1.0 mg/kg/injection, schedule: Q01DX009 (ip), vehicle: saline with Tween-80 114 % of control | dose: 1.0 mg/kg/injection, schedule: Q01DX009 (ip), vehicle: saline 113 % of control | dose: 1.25 mg/kg/injection, schedule: Q01DX009 (ip), vehicle: saline 97 % of control and 111 % of control | dose: 1.25 mg/kg/injection, schedule: Q01DX015 (ip), vehicle: carboxymethylcellulose (CMC) 111 % of control | dose: 1.3 mg/kg/injection, schedule: Q## X008 (oral), vehicle: saline 111 % of control | dose: 1.5 mg/kg/injection, schedule: Q01DX006 (iv), vehicle: saline 112 % of control | dose: 1.5 mg/kg/injection, schedule: Q01DX009 (oral), vehicle: saline 114 % of control | dose: 1.5 mg/kg/injection, schedule: Q01DX015 (im), vehicle: saline 117 % of control | dose: 1.5 mg/kg/injection, schedule: Q01DX015 (sc), vehicle: saline 120 % of control | dose: 1.5 mg/kg/injection, schedule: Q## X003 (oral), vehicle: saline 104 % of control | dose: 1.5 mg/kg/injection, schedule: Q## X024 (oral), vehicle: saline 113 % of control | dose: 2.5 mg/kg/injection, schedule: Q01DX009 (ip), vehicle: saline 117 % of control | dose: 2.5 mg/kg/injection, schedule: Q01DX015 (ip), vehicle: carboxymethylcellulose (CMC) 122 % of control | dose: 2.6 mg/kg/injection, schedule: Q## X008 (oral), vehicle: saline 114 % of control | dose: 3.0 mg/kg/injection, schedule: Q01DX006 (iv), vehicle: saline 120 % of control | dose: 3.0 mg/kg/injection, schedule: Q## X003 (oral), vehicle: saline 103 % of control | dose: 5.0 mg/kg/injection, schedule: Q01DX Z (ip), vehicle: methylcellulose (MC) 119 % of control | dose: 5.2 mg/kg/injection, schedule: Q## X008 (oral), vehicle: saline 119 % of control | dose: 6.0 mg/kg/injection, schedule: Q01DX006 (iv), vehicle: saline 121 % of control | dose: 6.0 mg/kg/injection, schedule: Q## X003 (oral), vehicle: saline 113 % of control | dose: 10.5 mg/kg/injection, schedule: Q01DX001 (oral), vehicle: saline 111 % of control | dose: 11.0 mg/kg/injection, schedule: Q01DX Z (ip), vehicle: methylcellulose (MC) 109 % of control | dose: 12.0 mg/kg/injection, schedule: Q01DX009 (ip), vehicle: saline 100 % of control and 101 % of control | dose: 12.0 mg/kg/injection, schedule: Q## X040 (oral), vehicle: saline 87 % of control | dose: 16.0 mg/kg/injection, schedule: Q01DX009 (ip), vehicle: saline 107 % of control | dose: 21.0 mg/kg/injection, schedule: Q01DX001 (oral), vehicle: saline 106 % of control | dose: 24.0 mg/kg/injection, schedule: Q01DX009 (ip), vehicle: saline 110 % of control | dose: 24.0 mg/kg/injection, schedule: Q01DX009 (oral), vehicle: saline 112 % of control | dose: 24.0 mg/kg/injection, schedule: Q01DX015 (im), vehicle: saline 120 % of control | dose: 24.0 mg/kg/injection, schedule: Q01DX015 (ip), vehicle: saline 114 % of control | dose: 24.0 mg/kg/injection, schedule: Q01DX015 (oral), vehicle: saline 104 % of control | dose: 48.0 mg/kg/injection, schedule: Q01DX009 (ip), vehicle: saline 88 % of control | dose: 48.0 mg/kg/injection, schedule: Q01DX009 (oral), vehicle: saline 101 % of control | dose: 48.0 mg/kg/injection, schedule: Q01DX015 (im), vehicle: saline 95 % of control and 112 % of control | dose: 48.0 mg/kg/injection, schedule: Q01DX015 (ip), vehicle: carboxymethylcellulose (CMC) 120 % of control | dose: 48.0 mg/kg/injection, schedule: Q01DX015 (ip), vehicle: saline 101 % of control and 114 % of control | dose: 48.0 mg/kg/injection, schedule: Q01DX015 (oral), vehicle: saline 97 % of control | dose: 48.0 mg/kg/injection, schedule: Q01DX015 (sc), vehicle: saline 106 % of control and 108 % of control | dose: 48.0 mg/kg/injection, schedule: Q## X024 (oral), vehicle: saline 109 % of control | dose: 84.0 mg/kg/injection, schedule: Q01DX001 (oral), vehicle: saline 121 % of control | dose: 96.0 mg/kg/injection, schedule: Q01DX006 (iv), vehicle: saline 106 % of control | dose: 96.0 mg/kg/injection, schedule: Q01DX015 (im), vehicle: saline 86 % of control | dose: 96.0 mg/kg/injection, schedule: Q01DX015 (oral), vehicle: saline 87 % of control | dose: 96.0 mg/kg/injection, schedule: Q## X024 (oral), vehicle: saline 98 % of control | dose: 192.0 mg/kg/injection, schedule: Q01DX006 (iv), vehicle: saline 104 % of control | dose: 192.0 mg/kg/injection, schedule: Q01DX015 (oral), vehicle: saline 87 % of control | dose: 356.0 mg/kg/injection, schedule: Q## X008 (oral), vehicle: saline 111 % of control | dose: 384.0 mg/kg/injection, schedule: Q01DX006 (iv), vehicle: saline 86 % of control | dose: 384.0 mg/kg/injection, schedule: Q## X003 (oral), vehicle: saline 122 % of control | dose: 768.0 mg/kg/injection, schedule: Q## X003 (oral), vehicle: saline 108 % of control | dose: 1000.0 mg/kg/injection, schedule: Q## X003 (oral), vehicle: saline 103 % of control
active: dose: 0.37 mg/kg/injection, schedule: Q01DX015 (ip), vehicle: saline 157 % of control | dose: 0.75 mg/kg/injection, schedule: Q01DX015 (ip), vehicle: saline 188 % of control | dose: 3.0 mg/kg/injection, schedule: Q01DX005 (oral), vehicle: saline 157 % of control | dose: 3.0 mg/kg/injection, schedule: Q01DX009 (ip), vehicle: saline 165 % of control | dose: 3.0 mg/kg/injection, schedule: Q01DX015 (ip), vehicle: saline 191 % of control | dose: 3.0 mg/kg/injection, schedule: Q01DX015 (oral), vehicle: saline 157 % of control | dose: 4.0 mg/kg/injection, schedule: Q01DX009 (ip), vehicle: saline with Tween-80 161 % of control | dose: 4.0 mg/kg/injection, schedule: Q01DX009 (ip), vehicle: saline 165 % of control | dose: 5.0 mg/kg/injection, schedule: Q01DX009 (ip), vehicle: saline 155 % of control | dose: 5.0 mg/kg/injection, schedule: Q01DX015 (ip), vehicle: carboxymethylcellulose (CMC) 155 % of control | dose: 6.0 mg/kg/injection, schedule: Q01DX005 (oral), vehicle: saline 174 % of control | dose: 6.0 mg/kg/injection, schedule: Q01DX009 (ip), vehicle: saline 211 % of control | dose: 6.0 mg/kg/injection, schedule: Q01DX015 (im), vehicle: saline 179 % of control | dose: 6.0 mg/kg/injection, schedule: Q01DX015 (ip), vehicle: saline 164 % of control | dose: 6.0 mg/kg/injection, schedule: Q01DX015 (oral), vehicle: saline 191 % of control | dose: 6.0 mg/kg/injection, schedule: Q01DX015 (sc), vehicle: saline 182 % of control | dose: 6.0 mg/kg/injection, schedule: Q## X024 (oral), vehicle: saline 157 % of control | dose: 7.0 mg/kg/injection, schedule: Q01DX015 (ip), vehicle: carboxymethylcellulose (CMC) 189 % of control | dose: 8.0 mg/kg/injection, schedule: Q01DX009 (ip), vehicle: saline 188 % of control | dose: 10.0 mg/kg/injection, schedule: Q01DX009 (ip), vehicle: saline 188 % of control and 206 % of control | dose: 11.0 mg/kg/injection, schedule: Q01DX015 (ip), vehicle: carboxymethylcellulose (CMC) 214 % of control | dose: 12.0 mg/kg/injection, schedule: Q01DX006 (iv), vehicle: saline 153 % of control | dose: 12.0 mg/kg/injection, schedule: Q01DX015 (im), vehicle: saline 162 % of control | dose: 12.0 mg/kg/injection, schedule: Q01DX015 (ip), vehicle: saline 155 % of control | dose: 12.0 mg/kg/injection, schedule: Q01DX015 (sc), vehicle: saline 171 % of control | dose: 12.0 mg/kg/injection, schedule: Q## X024 (oral), vehicle: saline 154 % of control | dose: 16.0 mg/kg/injection, schedule: Q01DX015 (ip), vehicle: carboxymethylcellulose (CMC) 183 % of control | dose: 24.0 mg/kg/injection, schedule: Q## X024 (oral), vehicle: saline 156 % of control | dose: 32.0 mg/kg/injection, schedule: Q04DX003 (ip), vehicle: saline 178 % of control | dose: 48.0 mg/kg/injection, schedule: Q01DX006 (iv), vehicle: saline 183 % of control | dose: 48.0 mg/kg/injection, schedule: Q## X003 (oral), vehicle: saline 158 % of control | dose: 64.0 mg/kg/injection, schedule: Q04DX003 (ip), vehicle: saline 193 % of control | dose: 712.0 mg/kg/injection, schedule: Q01DX001 (oral), vehicle: saline 150 % of control | dose: 1000.0 mg/kg/injection, schedule: Q01DX001 (oral), vehicle: saline 160 % of control
